Experimental data: ChEMBL document CHEMBL4311986, “Synthesis and biological evaluation of new multi-target 3-(1H-indol-3-yl)pyrrolidine-2,5-dione derivatives with potential antidepressant effect” (Eur J Med Chem, 2019)
Structures can show the parent of a compound that is named as a salt. The source made the active and inactive calls. The rule behind the calls is not given here.

Key:
[1] = target: T1, 5-hydroxytryptamine receptor 2C (Homo sapiens, UniProt P28335); experiment: Binding affinity to 5-HT2CR (unknown origin)
T1 sequence (P28335 whole entry): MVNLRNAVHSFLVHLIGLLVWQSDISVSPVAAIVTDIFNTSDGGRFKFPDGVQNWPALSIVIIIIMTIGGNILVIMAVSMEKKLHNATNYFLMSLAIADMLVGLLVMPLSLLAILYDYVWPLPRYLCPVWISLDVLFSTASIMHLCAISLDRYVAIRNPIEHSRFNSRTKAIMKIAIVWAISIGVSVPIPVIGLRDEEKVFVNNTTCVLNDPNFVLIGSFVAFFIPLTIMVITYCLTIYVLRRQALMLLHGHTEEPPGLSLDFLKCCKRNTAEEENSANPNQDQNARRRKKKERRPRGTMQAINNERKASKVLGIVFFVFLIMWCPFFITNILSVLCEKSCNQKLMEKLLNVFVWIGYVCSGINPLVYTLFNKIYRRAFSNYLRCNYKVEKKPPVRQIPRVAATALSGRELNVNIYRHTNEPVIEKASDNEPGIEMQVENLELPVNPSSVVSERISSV

D(2) dopamine receptor = D(2) dopamine receptor (Homo sapiens, UniProt P14416); experiment: Displacement of [3H]-raclopride from human D2L receptor expressed in HEK293 cells incubated for 1 hr by liquid scintillation counting method; format: cell-based
[2] = target: 5-hydroxytryptamine receptor 2B (Homo sapiens, UniProt P41595); experiment: Binding affinity to 5-HT2BR (unknown origin)
[3] = target: T2, 5-hydroxytryptamine receptor 1A (Homo sapiens, UniProt P08908)
T2 sequence (P08908 whole entry): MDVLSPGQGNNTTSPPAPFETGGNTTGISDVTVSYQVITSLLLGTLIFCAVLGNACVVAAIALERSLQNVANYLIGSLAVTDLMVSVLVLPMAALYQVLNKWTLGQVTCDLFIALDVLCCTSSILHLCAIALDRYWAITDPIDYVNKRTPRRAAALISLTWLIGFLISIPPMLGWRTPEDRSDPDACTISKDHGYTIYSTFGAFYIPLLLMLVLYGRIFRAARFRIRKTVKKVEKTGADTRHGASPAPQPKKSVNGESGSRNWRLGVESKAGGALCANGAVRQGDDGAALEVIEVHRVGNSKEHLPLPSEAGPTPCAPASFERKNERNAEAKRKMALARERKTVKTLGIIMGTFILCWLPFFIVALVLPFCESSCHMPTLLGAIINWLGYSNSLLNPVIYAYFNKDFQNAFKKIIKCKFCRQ

[4] = target: 5-hydroxytryptamine receptor 7 (Homo sapiens, UniProt P34969); experiment: Displacement of [3H]-5-CT from human 5HT7 receptor expressed in HEK293 cells incubated for 1 hr by liquid scintillation counting method; format: cell-based
Mus musculus [5] = experiment: Antidepressant-like activity in CD-1 mouse at 10 mg/kg, ip treated for 30 mins and measured for 4 mins by forced swim test
Mus musculus [6] = experiment: Induction of hypothermia in CD-1 mouse assessed as change in body temperature at 20 mg/kg, ip measured after 120 mins by thermometric method; format: functional, organism-based
Mus musculus [7] = experiment: Induction of hypothermia in CD-1 mouse assessed as change in body temperature at 5 mg/kg, ip measured after 90 mins by thermometric method; format: functional, organism-based
Mus musculus [8] = experiment: Induction of hypothermia in CD-1 mouse assessed as change in body temperature at 15 mg/kg, ip measured after 30 mins by thermometric method (reference value: -0.2 to 0.4 deg C); format: functional, organism-based
[9] = tested on: Alpha-1 adrenergic receptor (Rattus norvegicus); experiment: Displacement of [3H]-prazosin from rat cortex alpha1 adrenergic receptor incubated for 30 mins by microbeta scintillation counting method
Mus musculus [10] = experiment: Induction of hypothermia in CD-1 mouse assessed as change in body temperature at 5 mg/kg, ip measured after 60 mins by thermometric method; format: functional, organism-based
Mus musculus [11] = experiment: Induction of hypothermia in CD-1 mouse assessed as change in body temperature at 10 mg/kg, ip pretreated for 60 mins with 5-HT1AR antagonist WAY100635 followed by compound treatment and measured after 30 mins by thermometric method; format: functional, organism-based
[12] = Half life in human liver microsomes at 1 uM measured for 5 to 30 mins in presence of NADPH by LC-MS/MS analysis; format: ADME, Microsome
Mus musculus [13] = experiment: Antidepressant-like activity in CD-1 mouse assessed as decrease in immobility time at 10 mg/kg, ip treated for 30 mins and measured for 4 mins by forced swim test; format: functional, organism-based
Mus musculus [14] = experiment: Induction of hypothermia in CD-1 mouse assessed as change in body temperature at 10 mg/kg, ip measured after 90 mins by thermometric method; format: functional, organism-based
hERG (KCNH2) [15] = target: T3, hERG (KCNH2) (Homo sapiens, UniProt Q12809); experiment: Inhibition of human ERG at 0.1 uM by automated patch-clamp assay relative to control
Mus musculus [16] = experiment: Induction of hypothermia in CD-1 mouse assessed as change in body temperature at 10 mg/kg, ip pretreated for 30 mins with 5-HT1AR antagonist WAY100635 followed by compound treatment and measured after 30 mins by thermometric method; format: functional, organism-based
Mus musculus [17] = experiment: Induction of hypothermia in CD-1 mouse assessed as change in body temperature at 5 mg/kg, ip measured after 30 mins by thermometric method; format: functional, organism-based
Mus musculus [18] = experiment: Induction of hypothermia in CD-1 mouse assessed as change in body temperature at 10 mg/kg, ip measured after 60 mins by thermometric method; format: functional, organism-based
Mus musculus [19] = experiment: Induction of hypothermia in CD-1 mouse assessed as change in body temperature at 20 mg/kg, ip measured after 60 mins by thermometric method; format: functional, organism-based
Mus musculus [20] = experiment: Induction of hypothermia in CD-1 mouse assessed as change in body temperature at 15 mg/kg, ip measured after 90 mins by thermometric method (reference value: -0.3 to 0.3 deg C); format: functional, organism-based
Mus musculus [21] = experiment: Induction of hypothermia in CD-1 mouse assessed as change in body temperature at 20 mg/kg, ip measured after 30 mins by thermometric method; format: functional, organism-based
hERG (KCNH2) [22] = target: T3, hERG (KCNH2); experiment: Inhibition of human ERG at 10 uM by automated patch-clamp assay relative to control
Mus musculus [23] = experiment: Induction of hypothermia in CD-1 mouse assessed as change in body temperature at 15 mg/kg, ip measured after 120 mins by thermometric method (reference value: -0.1 to 0.3 deg C); format: functional, organism-based
hERG (KCNH2) [24] = target: T3, hERG (KCNH2); experiment: Inhibition of human ERG at 1 uM by automated patch-clamp assay relative to control
Mus musculus [25] = experiment: Induction of hypothermia in CD-1 mouse assessed as change in body temperature at 15 mg/kg, ip measured after 60 mins by thermometric method (reference value: -0.2 to 0.5 deg C); format: functional, organism-based
Mus musculus [26] = experiment: Induction of hypothermia in CD-1 mouse assessed as change in body temperature at 5 mg/kg, ip measured after 120 mins by thermometric method; format: functional, organism-based
Mus musculus [27] = experiment: Induction of hypothermia in CD-1 mouse assessed as change in body temperature at 20 mg/kg, ip measured after 90 mins by thermometric method; format: functional, organism-based
Mus musculus [28] = experiment: Induction of hypothermia in CD-1 mouse assessed as change in body temperature at 10 mg/kg, ip measured after 30 mins by thermometric method; format: functional, organism-based
Mus musculus [29] = experiment: Induction of hypothermia in CD-1 mouse assessed as change in body temperature at 10 mg/kg, ip measured after 120 mins by thermometric method; format: functional, organism-based

T3 sequence (Q12809 whole entry): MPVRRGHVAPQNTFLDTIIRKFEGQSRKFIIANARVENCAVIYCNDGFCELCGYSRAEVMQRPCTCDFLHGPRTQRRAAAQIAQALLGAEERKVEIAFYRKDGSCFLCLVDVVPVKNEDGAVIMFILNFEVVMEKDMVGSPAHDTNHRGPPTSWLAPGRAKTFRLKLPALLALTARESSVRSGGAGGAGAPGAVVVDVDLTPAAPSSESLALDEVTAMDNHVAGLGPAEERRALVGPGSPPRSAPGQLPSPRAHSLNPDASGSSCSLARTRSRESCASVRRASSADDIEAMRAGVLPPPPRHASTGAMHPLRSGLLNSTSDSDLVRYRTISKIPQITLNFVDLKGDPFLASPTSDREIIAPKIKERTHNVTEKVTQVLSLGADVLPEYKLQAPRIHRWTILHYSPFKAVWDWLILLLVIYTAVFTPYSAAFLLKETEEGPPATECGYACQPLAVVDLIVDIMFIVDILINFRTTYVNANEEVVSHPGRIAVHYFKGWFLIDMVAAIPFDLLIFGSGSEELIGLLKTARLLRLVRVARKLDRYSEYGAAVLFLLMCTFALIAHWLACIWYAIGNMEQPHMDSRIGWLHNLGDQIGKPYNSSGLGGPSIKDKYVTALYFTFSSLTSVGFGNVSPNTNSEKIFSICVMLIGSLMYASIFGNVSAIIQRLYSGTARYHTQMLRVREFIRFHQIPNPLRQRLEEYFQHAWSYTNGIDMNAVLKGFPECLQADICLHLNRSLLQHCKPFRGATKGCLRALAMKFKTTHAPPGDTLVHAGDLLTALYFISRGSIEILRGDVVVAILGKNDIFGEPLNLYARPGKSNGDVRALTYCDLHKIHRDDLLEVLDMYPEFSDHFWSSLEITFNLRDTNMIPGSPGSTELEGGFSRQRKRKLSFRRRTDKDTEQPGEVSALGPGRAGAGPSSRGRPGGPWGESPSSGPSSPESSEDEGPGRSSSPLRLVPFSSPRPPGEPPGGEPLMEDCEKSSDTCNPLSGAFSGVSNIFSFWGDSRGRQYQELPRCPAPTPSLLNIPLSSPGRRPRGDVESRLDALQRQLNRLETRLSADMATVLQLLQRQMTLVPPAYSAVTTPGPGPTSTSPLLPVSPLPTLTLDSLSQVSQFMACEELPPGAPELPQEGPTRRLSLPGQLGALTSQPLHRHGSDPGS
D(2) dopamine receptor, sequence (P14416 whole entry): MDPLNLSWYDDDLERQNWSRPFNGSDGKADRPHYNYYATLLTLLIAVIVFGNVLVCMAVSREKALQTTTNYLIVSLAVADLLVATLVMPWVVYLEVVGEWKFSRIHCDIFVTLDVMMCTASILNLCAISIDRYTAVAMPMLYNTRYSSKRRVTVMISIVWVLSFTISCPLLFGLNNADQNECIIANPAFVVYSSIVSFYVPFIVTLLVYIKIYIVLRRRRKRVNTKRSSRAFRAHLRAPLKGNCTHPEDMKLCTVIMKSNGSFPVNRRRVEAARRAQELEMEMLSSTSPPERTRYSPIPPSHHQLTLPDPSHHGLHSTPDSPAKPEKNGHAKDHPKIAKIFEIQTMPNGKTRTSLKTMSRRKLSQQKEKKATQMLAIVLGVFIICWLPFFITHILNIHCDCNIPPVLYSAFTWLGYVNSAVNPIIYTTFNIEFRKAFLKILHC
5-hydroxytryptamine receptor 2B, sequence (P41595 whole entry): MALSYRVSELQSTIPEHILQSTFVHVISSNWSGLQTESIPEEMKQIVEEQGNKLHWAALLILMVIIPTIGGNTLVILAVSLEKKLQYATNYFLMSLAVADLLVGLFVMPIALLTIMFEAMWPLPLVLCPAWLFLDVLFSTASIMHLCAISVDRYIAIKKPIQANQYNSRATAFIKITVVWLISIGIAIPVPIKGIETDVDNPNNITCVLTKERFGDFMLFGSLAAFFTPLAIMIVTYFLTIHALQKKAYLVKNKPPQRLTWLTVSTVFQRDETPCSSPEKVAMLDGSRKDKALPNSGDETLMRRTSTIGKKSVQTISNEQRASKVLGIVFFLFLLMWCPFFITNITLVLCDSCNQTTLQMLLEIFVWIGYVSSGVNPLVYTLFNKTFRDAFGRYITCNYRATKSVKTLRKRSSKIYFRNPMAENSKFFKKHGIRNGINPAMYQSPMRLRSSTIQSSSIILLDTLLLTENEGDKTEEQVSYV
5-hydroxytryptamine receptor 7, sequence (P34969 whole entry): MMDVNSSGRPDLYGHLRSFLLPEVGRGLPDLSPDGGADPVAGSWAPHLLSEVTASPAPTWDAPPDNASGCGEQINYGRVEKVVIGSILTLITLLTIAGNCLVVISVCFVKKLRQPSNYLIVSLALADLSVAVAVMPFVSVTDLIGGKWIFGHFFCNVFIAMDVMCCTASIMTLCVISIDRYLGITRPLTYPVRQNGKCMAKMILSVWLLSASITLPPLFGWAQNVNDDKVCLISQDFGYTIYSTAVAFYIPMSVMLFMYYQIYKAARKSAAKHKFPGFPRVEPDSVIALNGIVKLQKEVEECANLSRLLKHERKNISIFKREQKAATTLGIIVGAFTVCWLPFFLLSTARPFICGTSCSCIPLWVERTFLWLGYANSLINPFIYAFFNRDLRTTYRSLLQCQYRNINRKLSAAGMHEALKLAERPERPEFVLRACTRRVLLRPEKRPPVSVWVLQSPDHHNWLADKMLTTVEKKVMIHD

SMILES: CC[C@@H](CO)NC(=O)[C@@H]1C=C2c3cccc4c3c(cn4C)C[C@H]2N(C)C1 [METHYSERGIDE MALEATE]
- Ki [1]: 0.794 nM

SMILES: O=c1ccc2ccc(OCCCCN3CCN(c4cccc5sccc45)CC3)cc2[nH]1 [BREXPIPRAZOLE]
- Ki (D(2) dopamine receptor): 0.3 nM
- Ki [2]: 0.398 nM
- Ki [3]: 0.12 nM
- Ki [4]: 3.7 nM

SMILES: O=C1CC(c2c[nH]c3ccccc23)C(=O)N1CCCCN1CCC(c2c[nH]c3ccc(F)cc23)CC1 (stereo not given)
- Activity (Mus musculus [5]): Active
- deltaT (Mus musculus [6]): -0.3 °C
- deltaT (Mus musculus [7]): 0.5 °C
- deltaT (Mus musculus [8]): -2 °C
- Activity [9]: Active
- deltaT (Mus musculus [10]): 0.4 °C
- deltaT (Mus musculus [11]): 0.7 °C
- half-life at 1 µM [12]: 11.5 min
- Activity (Mus musculus [13]): Active
- deltaT (Mus musculus [14]): 0.1 °C
- inhibition at 0.1 µM (hERG (KCNH2) [15]): 45.1%
- deltaT (Mus musculus [16]): -0.1 °C
- deltaT (Mus musculus [17]): 0.3 °C
- deltaT (Mus musculus [18]): -0.5 °C
- deltaT (Mus musculus [19]): -1 °C
- deltaT (Mus musculus [20]): 0 °C
- deltaT (Mus musculus [21]): -2.2 °C
- inhibition at 10 µM (hERG (KCNH2) [22]): 96.4%
- deltaT (Mus musculus [23]): 0.3 °C
- inhibition at 1 µM (hERG (KCNH2) [24]): 84.7%
- deltaT (Mus musculus [25]): -0.8 °C
- deltaT (Mus musculus [26]): 0.2 °C
- deltaT (Mus musculus [27]): -0.4 °C
- deltaT (Mus musculus [28]): -1.4 °C
- deltaT (Mus musculus [29]): 0.2 °C
